# Test results taken from PMC8907714, “Antimicrobial property of Pichia pastoris‐derived natto peptide against foodborne bacteria and its preservative potential to maintain pork quality during refrigerated storage” (Food Science & Nutrition, 2022).
# Assays:
# [1] = tested on: total bacteria, Staphylococcus spp., Escherichia spp., and Pseudomonas spp.; assay: Microbial growth in pork during refrigerated storage, colony count; conditions: pork soaked 20 min, natto peptide 30, 60, 90 μg/ml, nisin 50 μg/ml, butyl paraben 100 μg/ml, 4°C, 8‐day storage
# Method: Fresh‐pork legs were bought from a local butcher (Binzhou, China) 24 h postmortem. The connective tissue and fat of the pork were removed before cutting into even slices (5 ± 0.1 g). Afterwards, the slices were soaked in 0, 30, 60, and 90 μg/ml of natto peptide for 20 min. Then, the slices were drained and placed in sterilized polyvinyl chloride trays, sealed using a polyethylene film, and stored at 4°C in a refrigerator for 8 days. Meanwhile, 50 μg/ml of nisin and 100 μg/ml of butyl paraben were used as positive controls to analyze the aseptic effects of natto peptide, including microbial growth, TVB‐N, lipid oxidation, pH, drip loss, and sensory quality during storage.
# The microbial growth of pork was determined by colony count, as described previously (Meng et al., [2021]). In brief, after the pork sample (5 g) was homogenized with 0.9% sterilized saline buffer (25 ml), 100 μl of the 10× diluent was spread on plate‐count agar, mannitol‐salt agar, violet red bile agar, and centrimide (CN) agar, and incubated at a suitable temperature for 48 h. All experiments were performed three times.
# [2] = tested on: E. coli O157; assay: Time‐killing curve; type: cell-based, Escherichia coli; conditions: gentamicin positive control, concentration not given
# Method: Time‐killing curves were obtained as described previously to evaluate the bactericidal rates of natto peptide (Dong & Sun, [2021]). Concisely, the natto peptide at final concentrations of 1×, 2×, and 4× MICs was incubated with E. coli O157, which was cultured to midlog phase. Then, the culture samples were harvested at different time intervals for colony counting. PBS buffer and gentamicin were used as negative and positive controls. All the experiments were performed in triplicate.
compound,measurement,setting,value
Nisin,bacterial growth in pork compared with control,[1],moderate inhibitory effect
CCCCOC(=O)c1ccc(O)cc1 [Butyl paraben],bacterial growth in pork compared with control,[1],effective inhibition function
CNC(C)C1CCC(N)C(OC2C(N)CC(N)C(OC3OCC(C)(O)C(NC)C3O)C2O)O1 (stereo not drawn) [gentamicin],time until bacteria were completely killed,[2],1.5 h
